≈ marks a conversion by molar mass, not a printed value.
What was measured:
[1] = Solubility of dasatinib in methanol (saturated solution, TGA); type: physicochemical; settings: organic solvent or mixture, thermodynamic from solid, 25° C., analyzed by TGA
Protocol: Dasatinib free base was recrystallized from methanol and dried. Crystalline dasatinib was added in excess to methanol to form a saturated solution at 25° C. The solution was analyzed by TGA and found to contain 3.1 mg/mL dasatinib.

[2] = cited from earlier work; for basic pKa: pH at which half of the basic sites are protonated
[3] = Gefitinib solubility in methanol and methanol:water mixtures without acetic acid (HPLC); type: physicochemical; settings: thermodynamic from solid, 24 hour stirring
Protocol: Crystalline gefitinib was added in excess to methanol and methanol:water mixtures to form saturated solutions at 20° C. After 24 hour of stirring, 1 mL aliquots were centrifuged at 10′000 RCF for 3 min.

physchem = settings: 20 °C, organic solvent or mixture, thermodynamic from solid
Protocol: The solubility of gefitinib in solvent mixtures with acetic acid were obtained by suspending 300 mg of crystalline gefitinib in 5 mL of solvent (methanol:water) containing 150 microliters of acetic acid at 20° C. (3.9 eq of acetic acid). […] The solubility in 100% methanol with acetic acid was determined after separating undissolved solids by centrifugation of a 1 mL aliquot at 10′000 RCF for 3 min after 1 hour of stirring. The supernatant was then analyzed for gefitinib concentration by HPLC.

In the case of `Cc1nc(Nc2ncc(C(=O)Nc3c(C)cccc3Cl)s2)cc(N2CCN(CCO)CC2)n1` [dasatinib], the solubility [1] is given as 3100 µg/mL (≈ 6.35 mM) and the “basic pKa” value [2] is given as 7.2.

For `N#Cc1ccnc(N2C(=O)CC[C@H]2C(=O)N(c2cncc(F)c2)[C@H](C(=O)NC2CC(F)(F)C2)c2ccccc2Cl)c1` [Ivosidenib, ivosidenib], the “basic pKa” value [2] is listed as “ca. 1.81”.

For `CCC[C@H](NC(=O)[C@@H]1[C@H]2CCC[C@H]2CN1C(=O)[C@@H](NC(=O)[C@@H](NC(=O)c1cnccn1)C1CCCCC1)C(C)(C)C)C(=O)C(=O)NC1CC1` [VX-950, Telaprevir], the “basic pKa” value [2] is listed as −0.69.

For `COc1cc2ncnc(Nc3ccc(F)c(Cl)c3)c2cc1OCCCN1CCOCC1` [gefitinib], the solubility at 24 h ([3]; methanol:water 60:40, organic solvent or mixture, Methanol:H2O 60:40, 20° C.) was 2100 µg/mL (≈ 4.7 mM), the solubility at 24 h ([3]; methanol:water 70:30, organic solvent or mixture, Methanol:H2O 70:30, 20° C.) was 4000 µg/mL (≈ 8.95 mM) and the solubility at 24 h ([3]; methanol:water 80:20, organic solvent or mixture, Methanol:H2O 80:20, 20° C.) was 6300 µg/mL (≈ 14.1 mM). For the same molecule, the solubility at 24 h ([3]; methanol:water 90:10, organic solvent or mixture, Methanol:H2O 90:10, 20° C.) was 6000 µg/mL (≈ 13.4 mM), the solubility at 24 h ([3]; organic solvent or mixture, Methanol:H2O 100:0, 20° C.) was 5200 µg/mL (≈ 11.6 mM) and the “basic pKa” value [2] was 6.8. It also gave a solubility at 1 h (physchem; methanol with acetic acid) of 31000 µg/mL (≈ 69.4 mM), a solubility (physchem; methanol:water 60:40 with acetic acid) of over 60000 µg/mL and a solubility (physchem; methanol:water 70:30 with acetic acid) of over 60000 µg/mL. For the same molecule, the solubility (physchem; methanol:water 80:20 with acetic acid) was over 60000 µg/mL, the solubility (physchem; methanol:water 90:10 with acetic acid) was over 60000 µg/mL and the solubility (physchem; methanol:water mixtures with acetic acid) was at least 60000 µg/mL.

In the case of `COc1ccc(-n2nc(C(N)=O)c3c2C(=O)N(c2ccc(N4CCCCC4=O)cc2)CC3)cc1` [Apixaban, apixaban], the “acidic pKa” value ([2]; pH at which half of the acidic site is deprotonated) is listed as “ca. 13” and the “basic pKa” value [2] is listed as under 2.

Source: US20230414515A1, “ACETIC ACID AS PROCESSING AID IN SPRAY DRYING FOR BASIC DRUGS” (Lonza Bend Inc., priority 2020, published 2023)
